Experimental data reported in the supplement of paper PMC5770543.
± gives the standard deviation.

Assays:
[1] = tested on: Plasmodium falciparum 3D7; experiment: EC50 growth inhibition (60 h, SYBR Green); conditions: stage: ring-stage start
[2] = target: Toxoplasma gondii RH tachyzoites; experiment: EC50 growth inhibition (48 h luciferase)
[3] = tested on: Toxoplasma gondii RH tachyzoites; experiment: % growth inhibition vs DMSO (48 h luciferase); higher = more inhibition; conditions: 10 µM
[4] = tested on: Plasmodium falciparum 3D7; experiment: % inhibition of schizont-to-ring transition vs DMSO; higher = more inhibition
In short: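 Schizont-to-ring transition inhibition is the formation of new rings relative to vehicle controls. Tightly synchronised P. falciparum schizonts at about 40–42 hours post-invasion (1% parasitemia, 2.5% hematocrit, AlbuMAX-supplemented RPMI) were treated with compound at 1, 3 or 10 µM, alongside vehicle and positive controls. After glutaraldehyde fixation, Triton permeabilisation and Hoechst 33342 staining, at least 100,000 events were counted by flow cytometry, and values are the mean of three experiments.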

[5] = tested on: Toxoplasma gondii RH tachyzoites; experiment: median egress time after A23187 ionophore; higher = stronger egress inhibition; conditions: 10 µM; pretreatment time: 24 h
Protocol: (§1)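 T. gondii RH tachyzoites expressing firefly luciferase were grown in HFF monolayers for 48 h with compound. % growth inhibition at 10 µM and EC50 (2-fold dilutions from 10 µM) were read by luminescence relative to 1% DMSO; EC50 listed as 10 (not determined, <80% inhibition) is left out. Plaque assays: 50 tachyzoites per well with 10 µM compound for 8-10 days, giving plaque count and area by crystal violet/ImageJ. Egress: median time to egress after 1 µM A23187 ionophore following 24 h of 10 µM compound (DMSO ~1.8 min; >10 = no egress within 10 min).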

[6] = tested on: Toxoplasma gondii RH tachyzoites; experiment: plaque count per well; higher = less inhibition; extreme values may be limits of the assay; conditions: 10 µM; 8-10 days
Protocol: as §1
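Throughout, for % growth inhibition vs DMSO (48 h luciferase): tested in triplicate wells of 96-well plates on confluent HFF monolayers, with 1% DMSO wells as negative control in four replicates.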

Compound | EC50 growth inhibition [1] [nM] | EC50 growth inhibition [2] [nM] | % growth inhibition [3] [%] | % inhibition of schizont-to-ring transition ([4]; 1 µM) [%] | % inhibition of schizont-to-ring transition ([4]; 3 µM) [%] | % inhibition of schizont-to-ring transition ([4]; 10 µM) [%] | median egress time [5] [min] | plaque count per well [6]
Cc1ccc2nc(C)cc(Nc3cccc(C(F)(F)F)c3)c2c1 | 894 | 465 | 99.29 ± 0.18 | 2.29 | 31.8 | 62.9 | – | –
CC(C)OCc1cc(CN2CCN(c3cccc(Cl)c3)CC2)c(O)c2ncccc12 | 3170 | 1690 | 81.6 ± 18 | 7.59 | 35.5 | 53.9 | – | –
Cc1ccc(C)c(-c2csc(Nc3ccc(C)c(C)c3)n2)c1 | – | – | < 0 | 13.5 | 16 | 20.4 | 3.2 | 22
COc1cccc(NC(=O)Cn2c(C)c(C#N)c3ccccc32)c1 | 231 | 905 | 94.39 ± 0.68 | 56.8 | 75.8 | 77.4 | – | –
Oc1c(C(Nc2ccccn2)c2cccc(Oc3ccccc3)c2)ccc2cccnc12 (stereo not given) | 852 | 1080 | 99.07 ± 0.26 | 27.1 | 43.9 | 64.8 | – | –
COc1ccc(/C=C2/SC(Nc3ccc(F)cc3)=NC2=O)c(OC)c1 | 880 | 7.69 | 92 ± 2.3 | 23.5 | 31.5 | 54.2 | – | –
Nc1ccc(-c2nc3cc(Oc4ccc(Oc5ccc6[nH]c(-c7ccc(N)cc7)nc6c5)cc4)ccc3[nH]2)cc1 | 253 | 1610 | 100.27 ± 0.078 | 23.6 | 43.2 | 60.7 | – | –
COc1ccc(Nc2cc(C)nc(NCc3ccccc3)n2)cc1 | 115 | 653 | 98.67 ± 0.18 | 30.2 | 34.6 | 60 | – | –
COc1ccc2c(=O)cc(C(Cl)(Cl)Cl)oc2c1 | 2900 | 1130 | 84.4 ± 9.2 | 37.9 | 45 | 55.2 | – | –
CCOC(=O)C1=C(c2ccccc2)N=c2sc(=Cc3cc(C)n(-c4ccc(F)cc4)c3C)c(=O)n2C1c1cccc(OC)c1OC (stereo not given) | 493 | 1500 | 92.3 ± 2 | 0.392 | 3.17 | 14.4 | – | –
O=C1c2ccccc2C2=Nc3ccccc3SC(c3cccc(F)c3)C12 (stereo not given) | 283 | 916 | 99.31 ± 0.18 | 15.1 | 29 | 37.5 | – | –
COc1ccc(C2c3ccc4ccccc4c3Oc3ncn(CCCN(C)C)c(=N)c32)cc1 (stereo not given) | 319 | 2650 | 100.2 ± 0.12 | 22.6 | 63.4 | 77.4 | – | –
O=C(Nc1ccc(N2CCCCC2)c(Cl)c1)c1ccc(Br)o1 | 812 | 7400 | 82.4 ± 6.4 | 29.7 | 39.7 | 53 | – | –
COc1ccc(C(O)(CCC(C)C)C(CN2CCOCC2)c2ccc(Cl)cc2)cc1 (stereo not given) | 2090 | 4870 | 100.9 ± 0.49 | 8.88 | 11.2 | 32.8 | – | –
Cc1ccc(Cl)cc1N1CCN(CCCNC(=O)C2CCN(c3nc4ccccc4[nH]3)CC2)CC1 | 920 | 3240 | 98.63 ± 0.9 | 37.8 | 50.8 | 60.5 | – | –
